Biological target: T1, PipM (piperine hydrolase) (Rhodococcus erythropolis, UniProt Z9TMQ3P3F8)
T1 construct: full length, no signal peptide, untagged (pET24a(+)-pipM), E. coli Rosetta2 (DE3); ORF 1389 nt (462 residues deduced), ~50 kDa monomer, homotetramer ~220 kDa; N-terminus of native protein NSFALSNV
T1 sequence (Z9TMQ3P3F8 1-462): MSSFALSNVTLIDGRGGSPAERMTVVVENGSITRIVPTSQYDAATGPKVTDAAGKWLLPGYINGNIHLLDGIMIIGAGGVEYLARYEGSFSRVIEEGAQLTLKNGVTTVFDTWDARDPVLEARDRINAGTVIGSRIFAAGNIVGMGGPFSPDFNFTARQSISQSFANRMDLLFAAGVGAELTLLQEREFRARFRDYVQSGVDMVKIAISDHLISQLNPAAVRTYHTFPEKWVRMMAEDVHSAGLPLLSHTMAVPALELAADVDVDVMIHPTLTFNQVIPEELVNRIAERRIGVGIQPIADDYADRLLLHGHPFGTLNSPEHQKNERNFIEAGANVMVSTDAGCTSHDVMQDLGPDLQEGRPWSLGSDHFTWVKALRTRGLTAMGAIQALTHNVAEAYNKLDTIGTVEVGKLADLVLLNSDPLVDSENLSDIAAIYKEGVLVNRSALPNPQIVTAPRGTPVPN
Experiment: HPLC at […] nm of piperic acid formation, Michaelis-Menten fit
Assay type: biochemical
Settings: 50 mM potassium phosphate pH 7.5, 28 °C, 1 min, 0.116 μM PipM, 0.001-0.5 mM piperine

Km: 2.11 ± 0.31 µM
SMILES: O=C(/C=C/C=C/c1ccc2c(c1)OCO2)N1CCCCC1 [piperine]

— publication PMC12753220, “A new amidohydrolase and β-oxidation–like pathway for piperine catabolism in soil actinomycetes” (The Journal of Biological Chemistry, 2025)
